{"source": "patent US11266645B2", "about": "“Methods for treating lymphoma” (Alexion Pharmaceuticals, Inc., priority 2018, dated 2022)", "system": "patients with relapsed/refractory (r/r) B- and T-cell lymphoma", "assay": "Phase 2 study of cerdulatinib 30 mg BID in relapsed/refractory B- and T-cell lymphoma (Example 2)", "assay_type": "in vivo, human", "procedure": "This study intended to confirm the safety and efficacy of cerdulatinib dosed 30 mg orally BID in patients with relapsed/refractory (r/r) B- and T-cell lymphoma. Dose reductions were permitted to a minimum of 15 mg BID. Response was assessed by Lugano Classification criteria.\nNinety nine patients enrolled (FL: 36, CLL/SLL: 28, PTCL: 18, marginal zone lymphoma: 8, aggressive: 5, Waldenstrom's macroglobulinemia: 4) (Table 4). Median age is 68 (42-93) and median # of prior therapies is 3 (1-13) (Table 5). 30 patients had prior BTK, PI3K or BCL-2 inhibitor therapy. The most common AEs of any grade are diarrhea (42%), fatigue (36%), and nausea (32%). Grade 3+ AEs occurring in ≥5% patients are neutropenia (18%), lipase increase (15%), pneumonia (12%), diarrhea (10%), and fatigue (7%). 5 patients have had Grade 5 infections considered related to study drug (3 of 5 in the CLL cohort). The target PK range has been achieved with an average SSCmin of ˜0.8 μM.", "note": "Values joined by “and” are separate entries in the source; they are usually repeats but may differ in a detail not shown here. Equal entries are not always repeated.", "data": [{"compound": "CCS(=O)(=O)N1CCN(c2ccc(Nc3ncc(C(N)=O)c(NC4CC4)n3)cc2)CC1", "note": "[cerdulatinib, 4-(cyclopropylamino)-2-((4-(4-(ethylsulfonyl)piperazin-1-yl)phenyl)amino)pyrimidine-5-carboxamide]", "values": [{"measurement": "duration of durable PR", "setting": "CLL patient relapsed on BTK inhibitor", "value": "≥ 5", "unit": "months"}, {"measurement": "CR (%)", "setting": "CLL/SLL", "value": "(4) %"}, {"measurement": "CR, number of patients", "setting": "CLL/SLL", "value": 1}, {"measurement": "PD (%)", "setting": "CLL/SLL", "value": "(4) %"}, {"measurement": "PD, number of patients", "setting": "CLL/SLL", "value": 1}, {"measurement": "PR (%)", "setting": "CLL/SLL", "value": "(57) %"}, {"measurement": "PR, number of patients", "setting": "CLL/SLL", "value": 16}, {"measurement": "ORR", "setting": "CLL/SLL, N 28", "value": 61, "unit": "%"}, {"measurement": "CR, number of patients", "setting": "DLBCL, tFL, and MCL", "value": 0}, {"measurement": "PD (%)", "setting": "DLBCL, tFL, and MCL", "value": 60, "unit": "%"}, {"measurement": "PD, number of patients", "setting": "DLBCL, tFL, and MCL", "value": 3}, {"measurement": "PR (%)", "setting": "DLBCL, tFL, and MCL", "value": 20, "unit": "%"}, {"measurement": "PR, number of patients", "setting": "DLBCL, tFL, and MCL", "value": 1}, {"measurement": "ORR", "setting": "DLBCL, tFL, and MCL, N 5", "value": 20, "unit": "%"}, {"measurement": "CR (%)", "setting": "FL", "value": "(10) %"}, {"measurement": "CR, number of patients", "setting": "FL", "value": 3}, {"measurement": "PD (%)", "setting": "FL", "value": "(10) %"}, {"measurement": "PD, number of patients", "setting": "FL", "value": 3}, {"measurement": "PR (%)", "setting": "FL", "value": "(39) %"}, {"measurement": "PR, number of patients", "setting": "FL", "value": 12}, {"measurement": "duration of durable PR", "setting": "FL patient relapsed on BTK inhibitor", "value": 12, "unit": "months"}, {"measurement": "ORR", "setting": "FL, N 31", "value": 49, "unit": "%"}, {"measurement": "CR, number of patients", "setting": "Other Indolent Lymphoma", "value": 0}, {"measurement": "PD (%)", "setting": "Other Indolent Lymphoma", "value": 33, "unit": "%"}, {"measurement": "PD, number of patients", "setting": "Other Indolent Lymphoma", "value": 4}, {"measurement": "PR (%)", "setting": "Other Indolent Lymphoma", "value": 42, "unit": "%"}, {"measurement": "PR, number of patients", "setting": "Other Indolent Lymphoma", "value": 5}, {"measurement": "ORR", "setting": "Other Indolent Lymphoma, N 12", "value": 42, "unit": "%"}, {"measurement": "CR (%)", "setting": "PTCL", "value": 33, "unit": "%"}, {"measurement": "PD (%)", "setting": "PTCL", "value": 33, "unit": "%"}, {"measurement": "PD, number of patients", "setting": "PTCL", "value": 5}, {"measurement": "PR (%)", "setting": "PTCL", "value": 13, "unit": "%"}, {"measurement": "PR, number of patients", "setting": "PTCL", "value": 2}, {"measurement": "study drug-related Serious Adverse Events (SAEs), number", "setting": "PTCL (n=16), Grade 3 to 4", "value": 4}, {"measurement": "duration of durable PR", "setting": "PTCL patient relapsed on tenalisib", "value": "≥ 3", "unit": "months"}, {"measurement": "AEs of any grade: diarrhea", "setting": "PTCL patients", "value": 33, "unit": "%"}, {"measurement": "AEs of any grade: fatigue", "setting": "PTCL patients", "value": 22, "unit": "%"}, {"measurement": "AEs of any grade: lipase increase", "setting": "PTCL patients", "value": 17, "unit": "%"}, {"measurement": "AEs of any grade: nausea", "setting": "PTCL patients", "value": 17, "unit": "%"}, {"measurement": "Grade 3+ AEs: diarrhea, number of patients", "setting": "PTCL patients", "value": 3}, {"measurement": "Grade 3+ AEs: lipase increase, number of patients", "setting": "PTCL patients", "value": 2}, {"measurement": "Grade 3+ AEs: neutropenia, number of patients", "setting": "PTCL patients", "value": 4}, {"measurement": "Grade 3+ AEs: pneumonia, number of patients", "setting": "PTCL patients", "value": 2}, {"measurement": "deaths or discontinuations due to Treatment Emergent Adverse Events", "setting": "PTCL patients (n=16)", "value": "no deaths or discontinuations"}, {"measurement": "CR, number of patients", "setting": "PTCL, 15 evaluable", "value": 5}, {"measurement": "ORR", "setting": "PTCL, N 15, 30 mg BID", "value": 47, "unit": "%"}, {"measurement": "duration of durable PR", "setting": "SLL patient relapsed on venetoclax", "value": "≥ 18", "unit": "months"}, {"measurement": "duration of durable PR", "setting": "WM patient relapsed on BTK inhibitor", "value": "≥ 7", "unit": "months"}, {"measurement": "AEs of any grade: diarrhea", "setting": "all 99 patients", "value": 42, "unit": "%"}, {"measurement": "AEs of any grade: fatigue", "setting": "all 99 patients", "value": 36, "unit": "%"}, {"measurement": "AEs of any grade: nausea", "setting": "all 99 patients", "value": 32, "unit": "%"}, {"measurement": "Grade 3+ AEs: diarrhea", "setting": "all 99 patients", "value": 10, "unit": "%"}, {"measurement": "Grade 3+ AEs: fatigue", "setting": "all 99 patients", "value": 7, "unit": "%"}, {"measurement": "Grade 3+ AEs: lipase increase", "setting": "all 99 patients", "value": 15, "unit": "%"}, {"measurement": "Grade 3+ AEs: neutropenia", "setting": "all 99 patients", "value": 18, "unit": "%"}, {"measurement": "Grade 3+ AEs: pneumonia", "setting": "all 99 patients", "value": 12, "unit": "%"}, {"measurement": "patients with Grade 5 infections considered related to study drug", "setting": "all 99 patients, 3 of 5 in the CLL cohort", "value": 5, "unit": "patients"}, {"measurement": "time on treatment of PTCL patients with CR still on drug", "setting": "first (two) responding PTCL patients", "value": "11 months and 12 months and 8 months"}, {"measurement": "response durations", "setting": "first two PTCL patients achieving a response (both CRs)", "value": "10 months and 6 months"}, {"measurement": "Toxicities ≥ Grade 3: Asthenia/Fatigue", "setting": "r/r PTCL, N = 16", "value": 6.3, "unit": "%"}, {"measurement": "Toxicities ≥ Grade 3: Diarrhea/Colitis", "setting": "r/r PTCL, N = 16", "value": 6.3, "unit": "%"}, {"measurement": "Toxicities ≥ Grade 3: Infection", "setting": "r/r PTCL, N = 16", "value": 18.8, "unit": "%"}, {"measurement": "Toxicities ≥ Grade 3: Neutropenia", "setting": "r/r PTCL, N = 16", "value": 6.3, "unit": "%"}]}]}
